Values joined by “and” are separate entries in the source; they are usually repeats but may differ in a detail not shown here. Identical values can stand only once. Inconclusive results and toxic doses are left out. No stated cut-off is given here; in the data, active means T/C of 150% or more; inactive means T/C below 125%.
Test system: L1210 leukemia ip in BDF1 mice, survival T/C
Assay: NCI In Vivo Anticancer Drug Screen. Data for tumor model L1210 Leukemia (intraperitoneal) in B6D2F1 (BDF1) mice
Conditions: endpoint: mean survival time, higher = longer survival
Method in brief: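 Survival endpoint. Drug-treated group vs vehicle group, expressed as T divided by C. Tumor passaged by transplantation.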

[1] = dose: 100.0 mg/kg/injection, schedule: Q01DX009 (ip), vehicle: Klucel (hydroxypropylcellulose) (HPC)
[2] = dose: 100.0 mg/kg/injection, schedule: Q04DX003 (ip), vehicle: Klucel (hydroxypropylcellulose) (HPC)
[3] = dose: 200.0 mg/kg/injection, schedule: Q01DX009 (ip), vehicle: Klucel (hydroxypropylcellulose) (HPC)
[4] = dose: 200.0 mg/kg/injection, schedule: Q04DX003 (ip), vehicle: Klucel (hydroxypropylcellulose) (HPC)
[5] = dose: 400.0 mg/kg/injection, schedule: Q01DX009 (ip), vehicle: Klucel (hydroxypropylcellulose) (HPC)
[6] = dose: 400.0 mg/kg/injection, schedule: Q04DX003 (ip), vehicle: Klucel (hydroxypropylcellulose) (HPC)
[7] = dose: 50.0 mg/kg/injection, schedule: Q01DX009 (ip), vehicle: Klucel (hydroxypropylcellulose) (HPC)
[8] = dose: 100.0 mg/kg/injection, schedule: Q04DX002 (ip), vehicle: Klucel (hydroxypropylcellulose) (HPC)
[9] = dose: 200.0 mg/kg/injection, schedule: Q04DX002 (ip), vehicle: Klucel (hydroxypropylcellulose) (HPC)
[10] = dose: 400.0 mg/kg/injection, schedule: Q04DX002 (ip), vehicle: Klucel (hydroxypropylcellulose) (HPC)
[11] = dose: 100.0 mg/kg/injection, schedule: Q01DX009 (ip), vehicle: saline with Tween-80
[12] = dose: 200.0 mg/kg/injection, schedule: Q01DX009 (ip), vehicle: saline with Tween-80
[13] = dose: 400.0 mg/kg/injection, schedule: Q01DX009 (ip), vehicle: saline with Tween-80
[14] = dose: 100.0 mg/kg/injection, schedule: Q04DX003 (ip), vehicle: saline with Tween-80
[15] = dose: 200.0 mg/kg/injection, schedule: Q04DX003 (ip), vehicle: saline with Tween-80
[16] = dose: 400.0 mg/kg/injection, schedule: Q04DX003 (ip), vehicle: saline with Tween-80
[17] = dose: 25.0 mg/kg/injection, schedule: Q01DX009 (ip), vehicle: Klucel (hydroxypropylcellulose) (HPC)

Measured: T/C

O=C(NC1c2cc(Cl)ccc2-c2c(Cl)cc(Cl)cc21)C12CC3CC(CC(C3)C1)C2 (stereo not given)
inactive: [1] 96 % of control | [2] 100 % of control | [3] 97 % of control | [4] 93 % of control | [5] 104 % of control | [6] 96 % of control

O=C1N(Cl)C(=O)C(c2ccccc2)(c2ccc(F)cc2)N1Cl (stereo not given)
inactive: [7] 94 % of control | [1] 94 % of control | [2] 96 % of control | [4] 94 % of control

O=C(Cl)COc1cccc2ccccc12
inactive: [1] 93 % of control | [3] 98 % of control | [5] 101 % of control

O=C1C(Cl)=C(Nc2ccccc2)C(=O)c2ccccc21
inactive: [2] 101 % of control | [4] 101 % of control | [6] 102 % of control

NNC(=O)C1CCC1C(=O)NN (stereo not given)
inactive: dose: 75.0 mg/kg/injection, schedule: Q01DX001 (ip), vehicle: saline 103 % of control | dose: 75.0 mg/kg/injection, schedule: Q04DX003 (ip), vehicle: saline 96 % of control | dose: 150.0 mg/kg/injection, schedule: Q01DX001 (ip), vehicle: saline 99 % of control | dose: 150.0 mg/kg/injection, schedule: Q04DX003 (ip), vehicle: saline 103 % of control | dose: 300.0 mg/kg/injection, schedule: Q01DX001 (ip), vehicle: saline 97 % of control | dose: 300.0 mg/kg/injection, schedule: Q04DX003 (ip), vehicle: saline 103 % of control

CNC(=Nc1ccc(NC(=O)c2ccc(C(=O)Nc3ccc(N=C(NC)c4ccccc4)cc3)cc2)cc1)c1ccccc1
inactive: dose: 3.75 mg/kg/injection, schedule: Q01DX Z (ip), vehicle: saline 106 % of control | dose: 7.5 mg/kg/injection, schedule: Q01DX Z (ip), vehicle: saline 100 % of control | dose: 15.0 mg/kg/injection, schedule: Q01DX Z (ip), vehicle: other 91 % of control | dose: 15.0 mg/kg/injection, schedule: Q01DX Z (ip), vehicle: saline 105 % of control

Cc1c(C#N)oc2cccc(O)c12
inactive: [1] 100 % of control | [8] 109 % of control | [3] 100 % of control | [9] 109 % of control | [5] 96 % of control | [10] 102 % of control

CCN(Cc1ccccc1)C(=O)Nc1ccccc1
inactive: [8] 101 % of control | [9] 93 % of control | [10] 97 % of control

CC1(O)CC2CCC1C2 (stereo not given)
inactive: dose: 100.0 mg/kg/injection, schedule: Q01DX009 (ip), vehicle: other 102 % of control | [11] 92 % of control | dose: 100.0 mg/kg/injection, schedule: Q04DX003 (ip), vehicle: other 95 % of control | dose: 200.0 mg/kg/injection, schedule: Q01DX009 (ip), vehicle: other 120 % of control | [12] 106 % of control | dose: 200.0 mg/kg/injection, schedule: Q04DX003 (ip), vehicle: other 100 % of control | dose: 400.0 mg/kg/injection, schedule: Q01DX009 (ip), vehicle: other 104 % of control | [13] 92 % of control | dose: 400.0 mg/kg/injection, schedule: Q04DX003 (ip), vehicle: other 91 % of control

CCOP(=O)(OCC)OCc1ccc(C)cc1
inactive: [14] 94 % of control | [15] 102 % of control | [16] 97 % of control

CC(NC(=O)Cc1ccccc1)C(=O)NN (stereo not given)
inactive: dose: 100.0 mg/kg/injection, schedule: Q01DX009 (ip), vehicle: saline 100 % of control | dose: 200.0 mg/kg/injection, schedule: Q01DX009 (ip), vehicle: saline 102 % of control | dose: 400.0 mg/kg/injection, schedule: Q01DX009 (ip), vehicle: saline 91 % of control

CC(=O)c1ccc(NC(=S)Nc2ccc(C(C)=O)cc2)cc1
inactive: dose: 5.0 mg/kg/injection, schedule: Q01DX009 (ip), vehicle: saline with Tween-80 87 % of control | dose: 10.0 mg/kg/injection, schedule: Q01DX009 (ip), vehicle: saline with Tween-80 103 % of control | dose: 20.0 mg/kg/injection, schedule: Q01DX009 (ip), vehicle: saline with Tween-80 98 % of control and 115 % of control | dose: 40.0 mg/kg/injection, schedule: Q01DX009 (ip), vehicle: saline with Tween-80 97 % of control and 102 % of control | dose: 80.0 mg/kg/injection, schedule: Q01DX009 (ip), vehicle: saline with Tween-80 86 % of control | dose: 84.0 mg/kg/injection, schedule: Q01DX009 (ip), vehicle: saline with Tween-80 98 % of control | dose: 320.0 mg/kg/injection, schedule: Q01DX009 (ip), vehicle: saline with Tween-80 102 % of control

N#C/C(=C\c1cccc(N)c1)c1ccccc1
inactive: dose: 100.0 mg/kg/injection, schedule: Q01DX001 (ip), vehicle: saline with Tween-80 100 % of control | dose: 200.0 mg/kg/injection, schedule: Q01DX001 (ip), vehicle: saline with Tween-80 95 % of control

O=C(NNCc1ccccc1)c1ccccn1
inactive: dose: 12.5 mg/kg/injection, schedule: Q01DX009 (ip), vehicle: Klucel (hydroxypropylcellulose) (HPC) 102 % of control | [17] 94 % of control | [7] 97 % of control | [1] 94 % of control

CS(=O)(=O)OCCN(CCOS(C)(=O)=O)c1ccc(C=Nc2ccc(-c3csc(-c4ccc(Br)cc4)n3)cc2)cc1
inactive: [17] 124 % of control | [7] 114 % of control

O=C(OC1CC2CC1C1C=CCC21)c1ccc([N+](=O)[O-])cc1 (stereo not given)
inactive: dose: 44.0 mg/kg/injection, schedule: Q01DX001 (ip), vehicle: carboxymethylcellulose (CMC) 94 % of control and 97 % of control | dose: 50.0 mg/kg/injection, schedule: Q01DX001 (ip), vehicle: carboxymethylcellulose (CMC) 102 % of control | dose: 67.0 mg/kg/injection, schedule: Q01DX001 (ip), vehicle: carboxymethylcellulose (CMC) 94 % of control and 100 % of control | dose: 100.0 mg/kg/injection, schedule: Q01DX001 (ip), vehicle: Klucel (hydroxypropylcellulose) (HPC) 104 % of control | dose: 100.0 mg/kg/injection, schedule: Q01DX001 (ip), vehicle: carboxymethylcellulose (CMC) 94 % of control and 100 % of control | [1] 101 % of control | dose: 150.0 mg/kg/injection, schedule: Q01DX001 (ip), vehicle: carboxymethylcellulose (CMC) 86 % of control and 91 % of control | dose: 200.0 mg/kg/injection, schedule: Q01DX001 (ip), vehicle: Klucel (hydroxypropylcellulose) (HPC) 93 % of control | dose: 200.0 mg/kg/injection, schedule: Q01DX001 (ip), vehicle: carboxymethylcellulose (CMC) 90 % of control | [3] 104 % of control | dose: 400.0 mg/kg/injection, schedule: Q01DX001 (ip), vehicle: Klucel (hydroxypropylcellulose) (HPC) 104 % of control | dose: 400.0 mg/kg/injection, schedule: Q01DX001 (ip), vehicle: carboxymethylcellulose (CMC) 96 % of control | [5] 101 % of control

CC(C)=CCC/C(C)=C/CN1C(=O)c2ccccc2C1=O
inactive: [11] 103 % of control | [14] 93 % of control | [12] 106 % of control | [15] 102 % of control | [13] 95 % of control | [16] 96 % of control

Cc1cc(-c2cc(C)sc2C)c(C)s1
inactive: [11] 87 % of control | [14] 96 % of control | [12] 92 % of control | [15] 94 % of control | [13] 94 % of control | [16] 96 % of control

Reference: PubChem BioAssay AID248 (DTP/NCI, 2004)
